Test results published in patent US6635245B1, “Strain of bacillus for controlling plant diseases” (priority 1999, dated 2003).
Where two headings read alike, the source gives them in different places.

Tests used:
Format in all cases: in vivo
Bremia lactucae = experiment: Plant test, downy mildew of lettuce (chemically-resistant strain); conditions: lettuce seedlings, 0 to 5 scale
Peronospora parasitica = experiment: Plant test, downy mildew of Brassica; conditions: Brassica seedlings, 0 to 5 scale
Uromyces phaseoli = experiment: Plant test, bean rust on snap bean; conditions: snap bean seedlings; 40 ppm; 0 to 5 scale
Botrytis cinerea = experiment: B-30087 and B-21661 whole broths alone and together, gray mold on pepper; conditions: 20 ppm, 0 to 5 scale
Description: A strain of B. pumilus, NRRL B-30087 was tested with B. subtilis, NRRL B-21661, to determine if the fungicidal effect was greater if used together, than if each strain were used alone. Each strain was grown in a 10 liter or 5,000 liter fermenter, in a soy flour-based medium for approximately 50 hours. Each strain was tested as a whole broth culture against Botrytis cinerea gray mold on pepper, and Peronospora parasitica downy mildew on Brassica. The whole broths were tested at 1X, 1/2X and 1/8X. The two strains were then tested in various combinations with each other at 1/2X, 1/4X and 1/8X. A water check (control) and a chemical fungicide (BREAK® at 20 ppm) were also tested for comparison.

Phytophthora infestans = conditions: tomato seedlings, 0-5 scale
Uncinula necator = experiment: Plant test, grape powdery mildew; conditions: grape seedlings (Chardonnay); 25 ppm; 0 to 5 scale
Description: Grape seedlings (Chardonnay) were grown in two inch pots until the 6-9 true leaf stage. The culture of powdery mildew was maintained on grape seedlings at 22-26° C. under a 14 hour photoperiod. All but the youngest 2-4 leaves are removed. The NRRL Accession No. B-30087, the chemical fungicide (Rally®, myclobutanil at 25 ppm) and the water check are applied to runoff as above for the other pathogens tested. Four to five replications are used for each treatment. To inoculate with powdery mildew, leaves with mildew on maintenance seedlings are removed with scissors and each plant is inoculated individually. The surface of the maintenance seedling is gently brushed with a paintbrush so that spores are deposited onto the upper surface of the test plants. The procedure is performed using a 3× lighted magnification lens to assure all plants are getting equivalent inoculum. Flats with pots are placed in the dark for 16-24 hours at 20-24° C. Flats are kept at 22-26° C. with a 14 hour photoperiod for an additional 9-11 days until the test is read. […] The result using NRRL Accession No. B-30087 is shown below in Table 5.

Structure (SMILES): CCO[PH](=O)O [Aliette, fosetyl-al]
- Score Rep 1 (Bremia lactucae; 240 ppm): 5.0
- Score Rep 2 (Bremia lactucae; 240 ppm): 3.0
- Score Rep 1 (Peronospora parasitica; 240 ppm): 5.0
- Score Rep 2 (Peronospora parasitica; 240 ppm): 3.0

Structure (SMILES): COCC(=O)N(c1c(C)cccc1C)C(C)C(=O)OC (stereo not drawn) [Ridomil, metalaxyl]
- Score Rep 1 (Bremia lactucae; 125 ppm): 3.0
- Score Rep 2 (Bremia lactucae; 125 ppm): 3.0
- Score Rep 1 (Peronospora parasitica; 125 ppm): 4.0
- Score Rep 2 (Peronospora parasitica; 125 ppm): 4.0
- Score Rep 3 (Peronospora parasitica; 125 ppm): 4.0

Structure (SMILES): CCCC1COC(Cn2cncn2)(c2ccc(Cl)cc2Cl)O1 (stereo not drawn) [Break ®, propiconazole]
- Score Rep 1 (Uromyces phaseoli): 0.0
- Score Rep 2 (Uromyces phaseoli): 0.0
- Score Rep 3 (Uromyces phaseoli): 0.5
- Botrytis cinerea Average disease rating (4 plants) (Botrytis cinerea): 0.2

Structure (SMILES): CO/C=C(/C(=O)OC)c1ccccc1Oc1cc(Oc2ccccc2C#N)ncn1 [Quadris, azoxystrobin]
- Score Rep 1 (Phytophthora infestans; 62.5 ppm): 0.0
- Score Rep 2 (Phytophthora infestans; 62.5 ppm): 0.5
- Score Rep 3 (Phytophthora infestans; 62.5 ppm): 0.0
- Score Rep 4 (Phytophthora infestans; 62.5 ppm): 0.5
- Score Rep 5 (Phytophthora infestans; 62.5 ppm): 0.0
- Score Rep 1 (Phytophthora infestans; 125 ppm): 0.0
- Score Rep 2 (Phytophthora infestans; 125 ppm): 0.0
- Score Rep 3 (Phytophthora infestans; 125 ppm): 0.0
- Score Rep 4 (Phytophthora infestans; 125 ppm): 0.0
- Score Rep 5 (Phytophthora infestans; 125 ppm): 0.0

Structure (SMILES): CCCCC(C#N)(Cn1cncn1)c1ccc(Cl)cc1 (stereo not drawn) [Rally, myclobutanil]
- Score Rep 1 (Uncinula necator): 0.0
- Score Rep 2 (Uncinula necator): 0.0
- Score Rep 3 (Uncinula necator): 0.0
- Score Rep 4 (Uncinula necator): 0.0
